Read-outs that look alike come from different tables or passages of the source.
Tests used:
Format in all cases: in vivo
[1] = system: wheat (Triticum aestivum); assay: Test A greenhouse herbicide test, pre- and postemergence; conditions: Triticum aestivum, 240 h; for plant injury at 125 g/ha: 125 g ai/ha; for plant injury at 500 g/ha: 500 g ai/ha; for plant injury at 500 g/ha / plant injury at 1000 g/ha: 0 to 100 scale; for plant injury at 1000 g/ha: 1000 g ai/ha
Procedure, shortened: (§1)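 Visual injury ratings, 0 (no effect) to 100 (complete control), versus untreated plants after roughly 10 d in a greenhouse. Compounds, formulated in a surfactant-containing non-phytotoxic solvent, were sprayed on loam–sand soil after sowing (pre) or on one- to two-leaf plants 2–10 cm tall (post).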

[2] = system: corn (Zea mays); assay: as above; conditions: Zea mays, 240 h
Procedure, shortened: as §1

[3] = system: pigweed (Amaranthus retroflexus); assay: as above; conditions: Amaranthus retroflexus, 240 h; for pest or weed control at 125 g/ha: 125 g ai/ha; for pest or weed control at 500 g/ha: 500 g ai/ha; for pest or weed control at 500 g/ha / pest or weed control at 1000 g/ha: 0 to 100 scale; for pest or weed control at 1000 g/ha: 1000 g ai/ha
Procedure, shortened: as §1

[4] = system: foxtail, giant (giant foxtail, Setaria faberii); assay: as above; conditions: Setaria faberi, 240 h; for pest or weed control at 125 g/ha: 125 g ai/ha; for pest or weed control at 500 g/ha: 500 g ai/ha; for pest or weed control at 500 g/ha / pest or weed control at 1000 g/ha: 0 to 100 scale; for pest or weed control at 1000 g/ha: 1000 g ai/ha
Procedure, shortened: as §1

[5] = system: barnyardgrass (Echinochloa crus-galli); assay: as above; conditions: Echinochloa crus-galli, 240 h; for pest or weed control at 125 g/ha: 125 g ai/ha; for pest or weed control at 500 g/ha: 500 g ai/ha; for pest or weed control at 500 g/ha / pest or weed control at 1000 g/ha: 0 to 100 scale; for pest or weed control at 1000 g/ha: 1000 g ai/ha
Procedure, shortened: as §1

[6] = system: barnyardgrass (Echinochloa crus-galli); assay: Test C greenhouse herbicide test, pre- and postemergence
Excerpt: Seeds of plant species selected from blackgrass (Alopecurus myosuroides), ryegrass, Italian (Italian ryegrass, Lolium multiflorum), wheat (winter wheat, Triticum aestivum), galium (catchweed bedstraw, Galium aparine), corn (Zea mays), large crabgrass, large (large crabgrass, Digitaria sanguinalis), foxtail, giant (giant foxtail, Setaria faberii), johnsongrass (Sorghum halepense), lambsquarters (Chenopodium album), morningglory (Ipomoea coccinea), nutsedge, yellow (yellow nutsedge, Cyperus esculentus), pigweed (Amaranthus retroflexus), ragweed (common ragweed, Ambrosia elatior), soybean (Glycine max), barnyardgrass (Echinochloa crus-galli), oilseed rape (Brassica napus), waterhemp (common waterhemp, Amaranthus rudis), and velvetleaf (Abutilon theophrasti) were planted into a blend of loam soil and sand and treated preemergence with test chemicals formulated in a non-phytotoxic solvent mixture which included a surfactant.
At the same time, plants selected from these crop and weed species and also chickweed (common chickweed, Stellaria media), kochia (Kochia scoparia), and oat, wild (wild oat, Avena fatua), were planted in pots containing Redi-Earth® planting medium (Scotts Company, 14111 Scottslawn Road, Marysville, Ohio 43041) comprising spaghnum peat moss, vermiculite, wetting agent and starter nutrients and treated with postemergence applications of test chemicals formulated in the same manner. Plants ranged in height from 2 to 18 cm (1- to 4-leaf stage) for postemergence treatments. Treated plants and controls were maintained in a greenhouse for 13 to 15 d, after which time all species were compared to controls and visually evaluated. Plant response ratings, summarized in Table C, are based on a scale of 0 to 100 where 0 is no effect and 100 is complete control. A dash (-) response means no test result.

[7] = post-emergence, Postemergence, 0 is no effect, 100 is complete control, read-out: Wheat plant response rating
[8] = pre-emergence, Preemergence, 0 no effect, 100 complete control, read-out: Plant response rating, Wheat
[9] = post-emergence, Postemergence, 0 is no effect, 100 is complete control, read-out: Pigweed plant response rating
[10] = pre-emergence, Preemergence, 0 no effect, 100 complete control, read-out: Plant response rating, Pigweed
[11] = post-emergence, Postemergence, 0 is no effect, 100 is complete control, read-out: Foxtail, Giant plant response rating
[12] = pre-emergence, Preemergence, 0 no effect, 100 complete control, read-out: Plant response rating, Foxtail, Giant
[13] = post-emergence, Postemergence, 0 is no effect, 100 is complete control, read-out: Barnyardgrass plant response rating
[14] = pre-emergence, Preemergence, 0 no effect, 100 complete control, read-out: Plant response rating, Barnyardgrass

`Cc1nn(C)c(=O)c(-c2c(C)oc3c(C)cccc23)c1O` [Compound 9, 4-(2,7-dimethyl-3-benzofuranyl)-5-hydroxy-2,6-dimethyl-3(2H)-pyridazinone] gave a plant injury at 125 g/ha ([1]; post-emergence, Postemergence, visual rating after approx. 10 d, 0 to 100 scale (0 no effect, 100 complete control), read-out: Plant response rating, Wheat) of 0%, a plant injury at 500 g/ha [1, 7] of 0% and a plant injury at 125 g/ha ([1]; pre-emergence, Preemergence, 0 to 100 scale where 0 is no effect and 100 is complete control, read-out: Wheat plant response rating) of 0%. The plant injury at 500 g/ha [1, 8] was 0%, the Corn plant response rating (crop injury, 0 = no effect, 100 = complete kill) at 125 g/ha ([2]; post-emergence, Postemergence, 125 g ai/ha, visual rating after approx. 10 d, 0 to 100 scale (0 no effect, 100 complete control)) was 0% and the plant injury at 500 g/ha ([2]; post-emergence, Postemergence, 500 g ai/ha, 0 to 100 scale, 0 is no effect, 100 is complete control, read-out: Corn plant response rating) was 0%. For the same compound, the plant injury at 125 g/ha ([2]; pre-emergence, Preemergence, 125 g ai/ha, 0 to 100 scale where 0 is no effect and 100 is complete control, read-out: Corn plant response rating) was 0%, the Corn plant response rating (crop injury, 0 = no effect, 100 = complete kill) at 500 g/ha ([2]; pre-emergence, Preemergence, 500 g ai/ha, 0 to 100 scale, 0 no effect, 100 complete control) was 0% and the pest or weed control at 125 g/ha ([3]; post-emergence, Postemergence, visual rating after approx. 10 d, 0 to 100 scale (0 no effect, 100 complete control), read-out: Plant response rating, Pigweed) was 0%. It also gave a pest or weed control at 500 g/ha [3, 9] of 0%, a pest or weed control at 125 g/ha ([3]; pre-emergence, Preemergence, 0 to 100 scale where 0 is no effect and 100 is complete control, read-out: Pigweed plant response rating) of 0% and a pest or weed control at 500 g/ha [3, 10] of 0%. The pest or weed control at 125 g/ha ([4]; post-emergence, Postemergence, visual rating after approx. 10 d, 0 to 100 scale (0 no effect, 100 complete control), read-out: Plant response rating, Foxtail, Giant) was 10%, the pest or weed control at 500 g/ha [4, 11] was 90% and the pest or weed control at 125 g/ha ([4]; pre-emergence, Preemergence, 0 to 100 scale where 0 is no effect and 100 is complete control, read-out: Foxtail, Giant plant response rating) was 70%. The pest or weed control at 500 g/ha [4, 12] was 100%, the pest or weed control at 125 g/ha ([5]; post-emergence, Postemergence, visual rating after approx. 10 d, 0 to 100 scale (0 no effect, 100 complete control), read-out: Plant response rating, Barnyardgrass) was 10% and the pest or weed control at 500 g/ha [5, 13] was 90%. The pest or weed control at 125 g/ha ([5]; pre-emergence, Preemergence, 0 to 100 scale where 0 is no effect and 100 is complete control, read-out: Barnyardgrass plant response rating) was 50% and the pest or weed control at 500 g/ha [5, 14] was 100%.
In the case of `Cc1ccc2sc(C)c(-c3c(O)c(C)nn(C)c3=O)c2c1` [Compound 1, 4-(2,5-dimethylbenzo[b]thien-3-yl)-5-hydroxy-2,6-dimethyl-3(2H)-pyridazinone], the “Barnyardgrass plant response rating” value ([6]; Postemergence, 31 g ai/ha, 0 to 100 scale (0 no effect, 100 complete control)) is reported as 0, the “Plant response rating, Barnyardgrass” value ([6]; Postemergence, 125 g ai/ha, scale 0 to 100, 0 is no effect, 100 is complete control) is reported as 5 and the “Plant response rating, Barnyardgrass” value ([6]; Postemergence, 250 g ai/ha, scale 0 to 100, 0 no effect, 100 complete control, 13 to 15 d) is reported as 5. The “Plant response rating, Barnyardgrass” value ([6]; Preemergence, 31 g ai/ha, scale 0 to 100, 0 is no effect, 100 is complete control) was 5, the “Plant response rating, Barnyardgrass” value ([6]; Preemergence, 62 g ai/ha, scale 0 to 100, 0 is no effect, 100 is complete control) was 5 and the “Plant response rating, Barnyardgrass” value ([6]; Preemergence, 125 g ai/ha, scale 0 to 100, 0 is no effect, 100 is complete control) was 25. The “Barnyardgrass plant response rating” value ([6]; Preemergence, 250 g ai/ha, scale 0 to 100 (0 no effect, 100 complete control)) was 90, the “Barnyardgrass plant response rating” value ([6]; postemergence, 62 g ai/ha, scale 0 to 100, 0 no effect, 100 complete control) was 5 and the plant injury at 1000 g/ha [1, 7] was 0%. The plant injury at 1000 g/ha [1, 8] was 0%, the plant injury at 1000 g/ha ([2]; post-emergence, Postemergence, 1000 g ai/ha, 0 to 100 scale, 0 is no effect, 100 is complete control, read-out: Corn plant response rating) was 40% and the Corn plant response rating (crop injury, 0 = no effect, 100 = complete kill) at 1000 g/ha ([2]; pre-emergence, Preemergence, 1000 g ai/ha, 0 to 100 scale, 0 no effect, 100 complete control) was 0%. It also gave a pest or weed control at 1000 g/ha [3, 9] of 100%, a pest or weed control at 1000 g/ha [3, 10] of 100% and a pest or weed control at 1000 g/ha [4, 11] of 80%. It also gave a pest or weed control at 1000 g/ha [4, 12] of 100%, a pest or weed control at 1000 g/ha [5, 13] of 90% and a pest or weed control at 1000 g/ha [5, 14] of 90%.
